From patent US9856259B2, “Heterocyclic compounds and uses thereof” (Plexxikon Inc., priority 2014, dated 2018)

Key:
MV-4-11 = experiment: Oncology cell growth assay, MV-4-11 3 d growth; format: cell-based; conditions: Homo sapiens, MV4-11; MV-4-11 cells, 72 hours, CellTiter Glo; read-out: Cell activity (IC50 μM) MV-4-11 3 d-Growtb
Procedure, shortened: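 MV-4-11 AML cells (MLL-AF4) seeded 3000/well, then exposed to 8-point 1:3 compound dilutions up to 10 μM final, 0.2% DMSO, for 72 h. Growth read by CellTiter Glo luminescence, normalised to DMSO controls; pIC50 from four-parameter fit.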

BRD4-BD12 = target: T1, BRD4-BD12 (Homo sapiens, UniProt O60885); experiment: Alphascreen binding assay, BRD4(1 2) H4; conditions: BRD4 dual bromodomains with acetylated Histone 4 peptide, read-out: Biochemical activity (IC50 μM) BRD4(1 2) H4
T1 construct: dual bromodomains (BRD4-BD12 (1-477), BRD4-BD12 (1-472)); six-His tag (N); made in house; host or cells: E. coli BL21-CodonPlus (DE3)
Procedure, shortened: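 N-His-tagged human BRD4 tandem bromodomains (1-477 or 1-472, E. coli-expressed) and biotinylated tetra-acetylated histone H4 1-21 peptide, preincubated 1 h at room temperature with compound in HEPES pH 7.5/NaCl/BSA/Triton/DTT. AlphaScreen nickel-chelate/streptavidin beads added (7.5 μg/mL), read after 30 min. pIC50 from four-parameter fit of control-normalized data.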

[1] = test system: cancer cell lines / MV-4-11 Myc reporter cell line; experiment: Bromodomain cell assays of Example 8 (at least one of them); format: cell-based; conditions: Homo sapiens, MV4-11; at least one of the bromodomain cell assays described in Example 8
Procedure, shortened: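 Antiproliferation: 3000 cells/well, 8-point 1:3 titration from 10 µM final, 0.2% DMSO, 72 h, CellTiter Glo luminescence. Myc reporter: MV-4-11 with E-box firefly luciferase, 25,000 cells, same titration, 24 h; One-Glo luminescence with CellTiter-Fluo viability; 10 µM JQ1 as low control. pIC50 from four-parameter fit.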

[2] = test system: cancer cells such leukemia and lymphoma, multiple myeloma cells, NUT midline carcinoma and glioblastoma cells; conditions: literature; cited from earlier work
[3] = test system: MYC promoter / c-myc transcription in MV-4-11 cells; conditions: literature (Dawson M A et al. 2011); cited from earlier work

| SMILES | IC50 (MV-4-11) [µM] | IC50 (BRD4-BD12) [µM] | IC50 [1] [µM] | activity in variety of cancer cells [2] | BRD4 recruitment to the MYC promoter [3] | c-myc transcription [3] |
| --- | --- | --- | --- | --- | --- | --- |
| Cc1noc(C)c1-c1cnc2c(-c3cnn(CC(F)(F)F)c3)nn(CC3CCC(F)(F)CC3)c2c1 [Compound P-2083, 4-[1-[(4,4-difluorocyclohexyl)methyl]-3-[1-(2,2,2-trifluoroethyl)pyrazol-4-yl]pyrazolo[4,3-b]pyridin-6-yl]-3,5-dimethyl-isoxazole] | ≤ 1 | ≤ 1 | < 10 | – | – | – |
| [2H]C([2H])(C1CCC(F)(F)CC1)n1nc(-c2cnn(C(F)F)c2)c2ncc(-c3c(C)noc3C)cc21 [Compound P-2084, 4-[1-[dideuterio-(4,4-difluorocyclohexyl)methyl]-3-[1-(difluoromethyl)pyrazol-4-yl]pyrazolo[4,3-b]pyridin-6-yl]-3,5-dimethyl-isoxazole] | ≤ 1 | ≤ 1 | < 10 | – | – | – |
| [2H]C([2H])(C1CCC(F)(F)CC1)n1nc(-c2cnn(CC(F)(F)F)c2)c2ncc(-c3c(C)noc3C)cc21 [Compound P-2085, 4-[1-[dideuterio-(4,4-difluorocyclohexyl)methyl]-3-[1-(2,2,2-trifluoroethyl)pyrazol-4-yl]pyrazolo[4,3-b]pyridin-6-yl]-3,5-dimethyl-isoxazole] | ≤ 1 | ≤ 1 | < 10 | – | – | – |
| Cc1noc(C)c1-c1cnc2c(-c3cnn(C)c3)nn(CC3CC(F)(F)C3)c2c1 [Compound P-2086, 4-[1-[(3,3-difluorocyclobutyl)methyl]-3-(1-methylpyrazol-4-yl)pyrazolo[4,3-b]pyridin-6-yl]-3,5-dimethyl-isoxazole] | ≤ 1 | ≤ 1 | < 10 | – | – | – |
| Cc1noc(C)c1-c1cnc2c(-c3cnn(CC(F)(F)F)c3)nn(CC3CC(F)(F)C3)c2c1 [Compound P-2087, 4-[1-[(3,3-difluorocyclobutyl)methyl]-3-[1-(2,2,2-trifluoroethyl)pyrazol-4-yl]pyrazolo[4,3-b]pyridin-6-yl]-3,5-dimethyl-isoxazole] | ≤ 1 | ≤ 1 | < 10 | – | – | – |
| Cc1noc(C)c1-c1cnc2c(-c3cnn(C(F)F)c3)nn(CC3(F)CCCCC3)c2c1 [Compound P-2088, 4-[3-[1-(difluoromethyl)pyrazol-4-yl]-1-[(1-fluorocyclohexyl)methyl]pyrazolo[4,3-b]pyridin-6-yl]-3,5-dimethyl-isoxazole] | ≤ 1 | ≤ 1 | < 10 | – | – | – |
| Cc1noc(C)c1-c1cnc2c(-c3cnn(CC(F)(F)F)c3)nn(CC3(F)CCCCC3)c2c1 [Compound P-2089, 4-[1-[(1-fluorocyclohexyl)methyl]-3-[1-(2,2,2-trifluoroethyl)pyrazol-4-yl]pyrazolo[4,3-b]pyridin-6-yl]-3,5-dimethyl-isoxazole] | ≤ 1 | ≤ 1 | < 10 | – | – | – |
| Cc1nnn(C)c1-c1cnc2c(-c3cnn(C)c3)nn(CC3CCC(F)(F)CC3)c2c1 [Compound P-2090, 1-[(4,4-difluorocyclohexyl)methyl]-6-(3,5-dimethyltriazol-4-yl)-3-(1-methylpyrazol-4-yl)pyrazolo[4,3-b]pyridine] | ≤ 1 | ≤ 1 | < 10 | – | – | – |
| Cc1noc(C)c1-c1cnc2ncn(C(c3ccccc3)c3ccccn3)c2c1 (stereo not shown) [Compound P-2103, 3,5-dimethyl-4-[1-[phenyl(2-pyridyl)methyl]imidazo[4,5-b]pyridin-6-yl]isoxazole] | ≤ 1 | ≤ 1 | < 10 | – | – | – |
| Cc1noc(C)c1-c1cnc2c(c1)ncn2C(c1ccccc1)c1ccccn1 (stereo not shown) [Compound P-2104, 3,5-dimethyl-4-[3-[phenyl(2-pyridyl)methyl]imidazo[4,5-b]pyridin-6-yl]isoxazole] | 10 to 200 | 1 to 10 | < 10 | – | – | – |
| Cc1sc2c(c1C)C(c1ccc(Cl)cc1)=N[C@@H](CC(=O)OC(C)(C)C)c1nnc(C)n1-2 [JQ1] | – | – | – | have shown activity | – | – |
| COc1cc2c(cc1-c1c(C)noc1C)ncc1[nH]c(=O)n([C@H](C)c3ccccn3)c12 [iBET 151] | – | – | – | have shown activity | disrupt | downregulate |
